Measurements as given in US20180246121A1, “IMMUNOLOGICAL TEST METHOD AND IMMUNOLOGICAL TEST KIT” (Fuso Parmaceutical Industries, Ltd., priority 2015, published 2018).

Tests used:
[1] = system: HMGB1; experiment: ELISA, immobilized HMa166 and HRP-labeled HMGB1 polyclonal antibody No. 12: HMGB1 measurement; format: binding, human; conditions: 50 ng/mL HMGB1; peptide 0.5 mg/mL; labeled polyclonal antibody No. 12
Procedure: (§1) Anti-HMGB1 antibody HMa166 at 10 μg/mL was immobilized onto a 96-well ELISA plate (Maxsorp, Nunc), and blocking was performed by dispensing 200 μL of ImmunoBlock (DS Pharma Biomedical) diluted five-fold in purified water. After washing with TBSt (10 mM Tris pH 7.4, 150 mM NaCl, 0.05% Tween-20), HMGB1 was added at 50 ng/mL or HMGB2 was added at 1,820 ng/mL, […] The mixture was allowed to react at 37° C. for two hours followed by washing with TBSt. After adding HMGB1 polyclonal antibody No. 12 or No. 14 obtained by immunizing rabbits with a synthetic human HMGB1 peptide or a recombinant human HMGB1, each of which had been labeled with HRP, the mixture was reacted at room temperature for one hour. After the reaction, the plate was washed with TBSt, and chromogenic substrate TMBZ (KPL) was added according to a standard method, the reaction was stopped with phosphoric acid, and the absorbances at 450 nm were measured using a microplate reader, […]
(§2) Next, whether similar effects can be obtained with antibodies other than CP11-1 was examined. […]

[2] = system: HMGB1; experiment: ELISA, immobilized MHa166 and HRP-labeled monoclonal antibody HMa176: HMGB1 measurement; format: binding, human; conditions: 50 ng/mL HMGB1, peptide 0.5 mg/mL
Procedure: Similar examinations were carried out for systems using another monoclonal antibody. It was examined how the reactions achieved by 50 ng/mL HMGB1 change when MHa176 antibody, which was obtained by immunization with HMGB1, were HRP-labeled and an HMGB2 peptide was allowed to coexist at a concentration of 0.5 mg/mL in an ELISA system with the immobilized anti-HMGB1 antibody MHa166 (FIG. 12A). Furthermore, effects of the coexisting HMGB2 peptide on HMGB2 measurements were similarly examined using 1,820 ng/mL HMGB2 (FIG. 12B).

[3] = target: T1, HMGB2 (Homo sapiens, UniProt P26583); experiment: ELISA, immobilized HMa166 and HRP-labeled HMGB1 polyclonal antibody No. 14: nonspecific reaction to HMGB2; format: binding; conditions: 1,820 ng/mL HMGB2; peptide 0.5 mg/mL; labeled polyclonal antibody No. 14
T1 sequence (P26583 1-209): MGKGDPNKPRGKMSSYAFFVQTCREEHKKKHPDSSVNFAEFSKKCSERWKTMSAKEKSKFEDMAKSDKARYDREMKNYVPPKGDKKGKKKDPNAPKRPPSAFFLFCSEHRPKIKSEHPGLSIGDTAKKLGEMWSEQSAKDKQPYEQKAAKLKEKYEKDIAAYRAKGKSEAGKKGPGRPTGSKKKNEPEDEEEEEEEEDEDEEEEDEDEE
Procedure: Furthermore, whether commercially available anti-HMGB2 antibodies can suppress nonspecific reactions to HMGB2 even when the labelled antibody is changed was examined. Anti-HMGB1 antibody HMa166 at 10 μg/mL was immobilized onto a 96-well ELISA plate (Maxsorp, Nunc), and blocking was performed by dispensing 200 μL of ImmunoBlock (DS Pharma Biomedical) diluted five-fold in purified water. After washing with TBSt (10 mM Tris pH 7.4, 150 mM NaCl, 0.05% Tween-20), HMGB1 was added at 50 ng/mL or HMGB2 was added at 1,820 ng/mL, […] The mixture was allowed to react at 37° C. for two hours followed by washing with TBSt. After adding HMGB1 polyclonal antibody No. 12 or No. 14 obtained by immunizing rabbits with a synthetic human HMGB1 peptide or a recombinant human HMGB1, each of which had been labeled with HRP, the mixture was reacted at room temperature for one hour. After the reaction, the plate was washed with TBSt, and chromogenic substrate TMBZ (KPL) was added according to a standard method, the reaction was stopped with phosphoric acid, and the absorbances at 450 nm were measured using a microplate reader, to observe impairment of the reaction due to the anti-HMGB2 antibody.
as §2

[4] = target: T1, HMGB2; experiment: ELISA, immobilized HMa166 and HRP-labeled HMGB1 polyclonal antibody No. 12: nonspecific reaction to HMGB2; format: binding; conditions: 1,820 ng/mL HMGB2; peptide 0.5 mg/mL; labeled polyclonal antibody No. 12
[5] = system: HMGB1; experiment: Sandwich ELISA, immobilized HMa166 and HRP-labeled CP11-1: HMGB1 measurement in the presence of an HMGB2 absorbent; format: binding, human; conditions: 12.5 ng/mL HMGB1, HMGB2 peptide 0 to 1.0 mg/mL
Procedure: Then, the effects of each anti-HMGB2 antibody were observed.
By means of an ELISA system using immobilized anti-HMGB1 antibody MHa166 and an HRP-labeled anti-HMGB1 antibody CP11-1, it was examined whether nonspecific reactions by HMGB2 will be decreased when the reaction is achieved by 1,820 ng/mL HMGB2 in the presence of the HMGB2 peptide at 0 to 1.0 mg/mL (FIGS. 8B and 9B). In addition, effects of the coexisting HMGB2 peptide on HMGB1 measurements were similarly examined using 12.5 ng/mL HMGB1 (FIGS. 8A and 9A).

[6] = target: T1, HMGB2; experiment: Competitive sandwich ELISA, immobilized anti-HMGB1 antibody HMa166 and HRP-labeled anti-HMGB1 antibody CP11-1: nonspecific reaction to HMGB2; format: binding; conditions: 1,820 ng/mL HMGB2; HMGB2 peptide 0 to 1.0 mg/mL; labeled CP11-1
Procedure: A 100 μL portion of 10 μg/mL anti-HMGB1 antibody HMa166 was added to a 96-well ELISA plate (Maxsorp, Nunc). Then, immobilization was carried out according to a standard method, and blocking was performed by dispensing 200 μL of ImmunoBlock (DS Pharma Biomedical) diluted five-fold in purified water. After washing with TBSt (10 mM Tris pH 7.4, 150 mM NaCl, 0.05% Tween-20), HMGB2 was added at 1,400 ng/mL, the mixture was allowed to react at room temperature for two hours followed by washing with TBSt, and an HRP-labeled anti-HMGB1 antibody CP11-1 was added. Then, after washing, chromogenic substrate TMBZ (KPL) was added according to a standard method. The reaction was stopped using phosphoric acid, and the absorbance at 450 nm was measured using a microplate reader. Furthermore, as a competitive agent, commercially available anti-HMGB2 antibodies shown in Table 1 were added to the reaction system at 10 μg/mL, and impairment of the reaction due to anti-HMGB2 antibodies was observed.
Furthermore, 0 to 1,300 μg/mL HMGB2 was measured by sandwich ELISA using the MHa166 antibody and the CP11-1 antibody, which were obtained by immunization with HMGB1, to observe how much HMGB2 reacts in ELISA using the MHa166 antibody and the CP11-1 antibody. […]

[7] = system: HMGB1; experiment: ELISA, immobilized HMa166 and HRP-labeled HMGB1 polyclonal antibody No. 14: HMGB1 measurement; format: binding, human; conditions: 50 ng/mL HMGB1; peptide 0.5 mg/mL; labeled polyclonal antibody No. 14
Procedure: as §1, §2

Row | neutralizing effects on HMGB2 [3] | effect of HMGB2 peptide on HMGB2 measurements [4] | Sequence | enhancement of the reaction with HMGB1 [1] | effect of HMGB2 peptide on reactivity of HMGB1 [2] | effect of HMGB2 peptide on measured values of HMGB1 [5] | effect of HMGB2 peptide on measured values of HMGB1 ([5]; listed as HM2-2 peptide) | absorption of nonspecific reaction to HMGB2 by HMGB2 peptide [6] | effect of HMGB2 peptide on HMGB1 measurements [7] | effect of HMGB2 peptide on HMGB1 measurements [1]
1 | not observed | attenuated | CREEHKKKHPDSSVNFAEFS [HM2-2, HMGB2-derived peptide, 23rd to 42nd amino acids of full-length human HMGB2] | approximately 1.6 fold | enhancement of reactivity of HMGB1 | concentration-dependent reaction enhancement | concentration-dependent enhancement of the reaction | absorbed nonspecific reactions to HMGB2 in a concentration-dependent manner | increased the reactivity of HMGB1 | 
2 | not observed | did not affect | MGKGDPNKPRGKMSSYA [HM2-1, HMGB2-derived peptide, 1st to 17th amino acids of full-length human HMGB2] |  |  | hardly affected |  | able to absorb nonspecific reaction to HMGB2 in a concentration-dependent manner | did not have any influence | did not affect
